# Laboratory results reported in publication PMC7767178 (International Journal of Molecular Sciences, 2020).
# Experiments:
# mice = experiment: Toxic effect on mice; assay type: in vivo; settings: reason for exclusion from the mouse models
# proteinase K = proteinase K (Parengyodontium album, UniProt P06873); settings: proteinase K 40 mAU/mg, pH 7.0, peptide:enzyme 10:1 (w/w); MIC against A. veronii ACCC61732; triplicate
# [1] = test system: Pseudomonas aeruginosa and Gram-positive bacteria such as Staphylococcus aureus and S. hyicus; experiment: MIC, range over strains; assay type: cell-based; settings: range over the strains of Table 2
# From the text: All experiments were repeated three times.
# proteinase K, sequence (P06873 106-384): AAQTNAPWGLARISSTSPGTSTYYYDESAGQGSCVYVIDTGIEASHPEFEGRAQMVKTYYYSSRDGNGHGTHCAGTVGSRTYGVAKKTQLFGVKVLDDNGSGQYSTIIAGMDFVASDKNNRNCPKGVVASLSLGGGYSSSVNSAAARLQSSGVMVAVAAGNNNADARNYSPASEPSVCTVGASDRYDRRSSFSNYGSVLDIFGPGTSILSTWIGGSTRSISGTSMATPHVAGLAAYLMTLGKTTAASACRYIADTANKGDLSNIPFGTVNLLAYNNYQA
structure (smiles),measurement,setting,value
CC(C)[C@@H]1NC(=O)CNC(=O)[C@H](CC(N)=O)NC(=O)[C@H](CCCNC(=N)N)NC(=O)[C@H](Cc2ccc(O)cc2)NC(=O)[C@H](C(C)C)NC(=O)[C@@H](NC(=O)[C@@H](NC(=O)[C@H](CC(N)=O)NC(=O)[C@H](Cc2c[nH]c3ccccc23)NC(=O)[C@H](C)NC(=O)[C@H](Cc2ccccc2)NC(=O)[C@H](CCCN)N=C(N(C)C)N(C)C)C(C)C)CSSC[C@@H](C(=O)N[C@@H](Cc2c[nH]cn2)C(=O)N[C@@H](CCCNC(=N)N)C(=O)N[C@@H](CCCNC(=N)N)C(=O)N[C@@H](C)C(=O)N[C@@H](CC(N)=O)C(N)=O)NC(=O)[C@H](C(C)C)NC(=O)[C@H](CCCNC(=N)N)NC1=O (stereo in doubt) [Guo-N6NH2],toxicity in mice,mice,toxic effect on mice
CC(C)[C@@H]1NC(=O)CNC(=O)[C@H](CC(N)=O)NC(=O)[C@H](CCCNC(=N)N)NC(=O)[C@H](Cc2ccc(O)cc2)NC(=O)[C@H](C(C)C)NC(=O)[C@@H](NC(=O)[C@@H](NC(=O)[C@H](CC(N)=O)NC(=O)[C@H](Cc2c[nH]c3ccccc23)NC(=O)[C@H](C)NC(=O)[C@H](Cc2ccccc2)NC(=O)CN)C(C)C)CSSC[C@@H](C(=O)N[C@@H](Cc2cnc[nH]2)C(=O)N[C@@H](CCCNC(=N)N)C(=O)N[C@@H](CCCNC(=N)N)C(=O)N[C@@H](C)C(=O)N[C@@H](CC(N)=O)C(N)=O)NC(=O)[C@H](C(C)C)NC(=O)[C@H](CCCNC(=N)N)NC1=O [N6NH2],MIC after proteinase K treatment,proteinase K,> 128 µg/mL
CC(C)[C@H]1NC(=O)CNC(=O)[C@@H](CC(N)=O)NC(=O)[C@@H](CCCNC(=N)N)NC(=O)[C@@H](Cc2ccc(O)cc2)NC(=O)[C@@H](C(C)C)NC(=O)[C@H](NC(=O)[C@H](NC(=O)[C@@H](CC(N)=O)NC(=O)[C@@H](Cc2c[nH]c3ccccc23)NC(=O)[C@@H](C)NC(=O)[C@@H](Cc2ccccc2)NC(=O)CN)C(C)C)CSSC[C@H](C(=O)N[C@H](Cc2c[nH]cn2)C(=O)N[C@H](CCCNC(=N)N)C(=O)N[C@H](CCCNC(=N)N)C(=O)N[C@H](C)C(=O)N[C@H](CC(N)=O)C(N)=O)NC(=O)[C@@H](C(C)C)NC(=O)[C@@H](CCCNC(=N)N)NC1=O [DN6NH2],MICs against Pseudomonas aeruginosa and Gram-positive bacteria such as S. aureus and S. hyicus,[1],1.62 to 6.46 µM
